Test results as given in ChEMBL document CHEMBL3991601, “The target landscape of clinical kinase drugs” (Science, 2017).
pKd: −log10 of the molar value. Counter-ions that a name gives are not always drawn. Active and inactive are the calls of the source. For most assays here, no stated cut-off is given here; in the data, actives have a measured Kd and inactives only a lower limit.

Legend:
Ephrin type-A receptor 7 = Ephrin type-A receptor 7 (Homo sapiens, UniProt Q15375)
[1] = biological target: BMP-2-inducible protein kinase (Homo sapiens, UniProt Q9NSY1)
Chain of BMP-2-inducible protein kinase (Q9NSY1 whole entry): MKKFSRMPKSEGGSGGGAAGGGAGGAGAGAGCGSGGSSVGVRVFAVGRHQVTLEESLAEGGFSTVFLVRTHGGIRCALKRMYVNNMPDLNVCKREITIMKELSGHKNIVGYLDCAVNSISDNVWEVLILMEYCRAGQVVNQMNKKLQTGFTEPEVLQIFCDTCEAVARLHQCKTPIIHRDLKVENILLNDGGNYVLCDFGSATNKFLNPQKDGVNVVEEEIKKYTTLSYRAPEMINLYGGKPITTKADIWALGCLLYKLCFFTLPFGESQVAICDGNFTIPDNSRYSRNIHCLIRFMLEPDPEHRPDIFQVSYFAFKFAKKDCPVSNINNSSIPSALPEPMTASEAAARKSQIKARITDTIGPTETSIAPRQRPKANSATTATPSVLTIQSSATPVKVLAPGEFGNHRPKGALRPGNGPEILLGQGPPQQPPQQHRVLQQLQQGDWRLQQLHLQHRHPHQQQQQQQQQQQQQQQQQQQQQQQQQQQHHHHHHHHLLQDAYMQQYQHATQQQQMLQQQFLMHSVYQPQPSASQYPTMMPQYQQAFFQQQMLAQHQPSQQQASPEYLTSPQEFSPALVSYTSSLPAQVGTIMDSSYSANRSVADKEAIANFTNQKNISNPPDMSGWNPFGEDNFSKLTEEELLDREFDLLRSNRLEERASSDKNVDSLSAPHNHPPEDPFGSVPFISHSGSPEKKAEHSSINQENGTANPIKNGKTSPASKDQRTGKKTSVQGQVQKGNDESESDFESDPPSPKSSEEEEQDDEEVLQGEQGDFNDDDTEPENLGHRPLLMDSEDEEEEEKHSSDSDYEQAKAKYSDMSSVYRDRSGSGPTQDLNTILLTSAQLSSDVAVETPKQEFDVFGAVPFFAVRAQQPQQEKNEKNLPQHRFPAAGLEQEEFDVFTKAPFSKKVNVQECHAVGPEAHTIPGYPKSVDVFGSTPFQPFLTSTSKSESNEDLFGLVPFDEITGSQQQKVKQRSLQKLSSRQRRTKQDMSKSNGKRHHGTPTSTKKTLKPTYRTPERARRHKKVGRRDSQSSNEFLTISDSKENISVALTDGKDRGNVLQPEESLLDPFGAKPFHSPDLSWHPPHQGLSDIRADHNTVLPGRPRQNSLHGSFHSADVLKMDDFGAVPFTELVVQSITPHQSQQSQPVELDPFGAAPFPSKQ

[2] = biological target: Platelet-derived growth factor receptor beta (Homo sapiens, UniProt P09619)
Chain of Platelet-derived growth factor receptor beta (P09619 whole entry): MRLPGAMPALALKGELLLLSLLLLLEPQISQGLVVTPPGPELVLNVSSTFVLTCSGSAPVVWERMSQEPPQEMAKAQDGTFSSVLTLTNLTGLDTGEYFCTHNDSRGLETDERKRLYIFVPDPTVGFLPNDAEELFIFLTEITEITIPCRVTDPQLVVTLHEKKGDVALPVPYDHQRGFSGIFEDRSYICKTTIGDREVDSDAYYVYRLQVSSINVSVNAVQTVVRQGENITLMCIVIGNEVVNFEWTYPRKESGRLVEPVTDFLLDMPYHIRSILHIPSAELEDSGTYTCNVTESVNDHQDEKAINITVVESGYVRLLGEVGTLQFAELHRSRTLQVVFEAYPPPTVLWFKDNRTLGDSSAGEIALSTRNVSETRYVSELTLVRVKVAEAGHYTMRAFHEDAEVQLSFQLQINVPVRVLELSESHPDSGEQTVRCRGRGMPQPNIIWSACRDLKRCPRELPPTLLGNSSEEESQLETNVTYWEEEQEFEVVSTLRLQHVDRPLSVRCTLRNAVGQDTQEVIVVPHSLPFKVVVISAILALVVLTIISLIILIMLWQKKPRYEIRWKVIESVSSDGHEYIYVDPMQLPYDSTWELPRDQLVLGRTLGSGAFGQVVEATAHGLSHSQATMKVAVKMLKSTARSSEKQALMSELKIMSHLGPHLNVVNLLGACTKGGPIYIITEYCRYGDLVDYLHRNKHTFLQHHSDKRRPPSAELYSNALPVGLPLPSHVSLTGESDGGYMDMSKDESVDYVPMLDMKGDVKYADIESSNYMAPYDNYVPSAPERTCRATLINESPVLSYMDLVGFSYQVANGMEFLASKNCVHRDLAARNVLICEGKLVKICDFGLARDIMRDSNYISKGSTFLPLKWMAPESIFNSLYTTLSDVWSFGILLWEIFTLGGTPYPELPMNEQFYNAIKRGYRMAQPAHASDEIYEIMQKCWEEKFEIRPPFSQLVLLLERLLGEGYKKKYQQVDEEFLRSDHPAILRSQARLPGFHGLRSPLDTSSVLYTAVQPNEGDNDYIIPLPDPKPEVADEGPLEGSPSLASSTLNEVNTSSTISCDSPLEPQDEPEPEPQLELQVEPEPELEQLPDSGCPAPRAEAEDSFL

[3] = biological target: T1, Ribosyldihydronicotinamide dehydrogenase [quinone] (Homo sapiens, UniProt P16083)
T1 sequence (P16083 whole entry): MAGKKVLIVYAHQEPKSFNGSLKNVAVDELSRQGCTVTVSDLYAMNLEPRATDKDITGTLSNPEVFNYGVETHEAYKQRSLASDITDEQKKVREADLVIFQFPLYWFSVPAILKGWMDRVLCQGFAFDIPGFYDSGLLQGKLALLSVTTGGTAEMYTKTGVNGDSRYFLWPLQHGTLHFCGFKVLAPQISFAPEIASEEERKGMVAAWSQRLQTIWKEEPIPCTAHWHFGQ

[4] = biological target: Mitogen-activated protein kinase 7 (Homo sapiens, UniProt Q13164)
[5] = biological target: Eukaryotic translation initiation factor 2-alpha kinase 1 (Homo sapiens, UniProt Q9BQI3)
Chain of Eukaryotic translation initiation factor 2-alpha kinase 1 (Q9BQI3 whole entry): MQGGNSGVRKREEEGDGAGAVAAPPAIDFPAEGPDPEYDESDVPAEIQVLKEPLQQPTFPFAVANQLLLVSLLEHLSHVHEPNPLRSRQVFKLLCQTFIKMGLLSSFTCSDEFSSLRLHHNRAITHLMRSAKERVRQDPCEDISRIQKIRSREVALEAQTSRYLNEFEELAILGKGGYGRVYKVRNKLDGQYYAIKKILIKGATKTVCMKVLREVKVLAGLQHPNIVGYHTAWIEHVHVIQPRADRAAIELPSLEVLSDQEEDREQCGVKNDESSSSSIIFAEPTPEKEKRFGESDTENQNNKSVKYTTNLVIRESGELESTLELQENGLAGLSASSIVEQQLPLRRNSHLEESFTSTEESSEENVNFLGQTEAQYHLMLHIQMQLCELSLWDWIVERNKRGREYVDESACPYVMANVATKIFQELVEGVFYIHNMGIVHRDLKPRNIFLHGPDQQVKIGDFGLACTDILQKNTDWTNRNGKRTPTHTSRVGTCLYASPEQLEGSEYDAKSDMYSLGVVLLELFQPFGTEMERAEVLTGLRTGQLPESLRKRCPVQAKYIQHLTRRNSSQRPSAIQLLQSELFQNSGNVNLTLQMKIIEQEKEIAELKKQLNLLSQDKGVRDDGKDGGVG

[6] = biological target: T2, EKC/KEOPS complex subunit TP53RK (Homo sapiens, UniProt Q96S44)
T2 sequence (Q96S44 whole entry): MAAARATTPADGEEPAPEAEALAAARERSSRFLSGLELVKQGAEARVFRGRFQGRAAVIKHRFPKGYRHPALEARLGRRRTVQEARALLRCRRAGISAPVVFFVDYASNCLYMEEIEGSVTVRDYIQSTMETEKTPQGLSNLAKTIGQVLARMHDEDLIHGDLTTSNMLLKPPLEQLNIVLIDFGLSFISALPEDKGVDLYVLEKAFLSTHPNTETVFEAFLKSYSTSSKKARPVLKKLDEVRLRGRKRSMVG

[7] = biological target: T3, Structural maintenance of chromosomes protein 1A (Homo sapiens, UniProt Q14683)
T3 sequence (Q14683 whole entry): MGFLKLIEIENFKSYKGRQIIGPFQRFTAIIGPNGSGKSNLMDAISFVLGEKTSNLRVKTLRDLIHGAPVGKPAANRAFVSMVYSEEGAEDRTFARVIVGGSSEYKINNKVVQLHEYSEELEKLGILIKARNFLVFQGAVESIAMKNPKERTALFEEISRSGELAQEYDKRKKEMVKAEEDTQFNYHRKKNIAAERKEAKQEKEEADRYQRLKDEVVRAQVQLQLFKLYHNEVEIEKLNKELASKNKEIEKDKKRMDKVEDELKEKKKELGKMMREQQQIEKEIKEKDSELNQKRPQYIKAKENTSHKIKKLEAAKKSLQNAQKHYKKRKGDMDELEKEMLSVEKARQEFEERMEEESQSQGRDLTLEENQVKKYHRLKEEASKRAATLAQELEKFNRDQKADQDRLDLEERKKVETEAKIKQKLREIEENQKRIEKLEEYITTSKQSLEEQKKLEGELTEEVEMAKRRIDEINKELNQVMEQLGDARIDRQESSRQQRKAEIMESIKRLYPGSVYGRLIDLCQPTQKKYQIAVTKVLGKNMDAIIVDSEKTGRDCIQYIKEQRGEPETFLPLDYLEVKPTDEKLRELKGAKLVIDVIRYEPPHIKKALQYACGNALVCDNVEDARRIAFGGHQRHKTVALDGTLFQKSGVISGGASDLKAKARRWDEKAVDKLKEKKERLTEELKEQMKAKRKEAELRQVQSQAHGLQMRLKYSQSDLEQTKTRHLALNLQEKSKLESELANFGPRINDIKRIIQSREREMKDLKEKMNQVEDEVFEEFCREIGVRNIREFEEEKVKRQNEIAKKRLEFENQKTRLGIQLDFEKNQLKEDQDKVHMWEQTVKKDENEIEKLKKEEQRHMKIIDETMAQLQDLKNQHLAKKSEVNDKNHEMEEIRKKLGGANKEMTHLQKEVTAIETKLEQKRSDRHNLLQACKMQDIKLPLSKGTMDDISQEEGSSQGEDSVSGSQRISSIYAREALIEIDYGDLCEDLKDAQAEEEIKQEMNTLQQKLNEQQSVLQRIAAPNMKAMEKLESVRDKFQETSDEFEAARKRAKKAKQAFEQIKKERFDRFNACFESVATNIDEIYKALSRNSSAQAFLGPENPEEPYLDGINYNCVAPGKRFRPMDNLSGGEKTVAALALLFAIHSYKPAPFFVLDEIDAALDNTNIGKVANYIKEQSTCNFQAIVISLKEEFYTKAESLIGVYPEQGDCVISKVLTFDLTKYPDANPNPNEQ

Aurora kinase B = Aurora kinase B (Homo sapiens, UniProt Q96GD4)
Chain of Aurora kinase B (Q96GD4 whole entry, the tested form may be a part): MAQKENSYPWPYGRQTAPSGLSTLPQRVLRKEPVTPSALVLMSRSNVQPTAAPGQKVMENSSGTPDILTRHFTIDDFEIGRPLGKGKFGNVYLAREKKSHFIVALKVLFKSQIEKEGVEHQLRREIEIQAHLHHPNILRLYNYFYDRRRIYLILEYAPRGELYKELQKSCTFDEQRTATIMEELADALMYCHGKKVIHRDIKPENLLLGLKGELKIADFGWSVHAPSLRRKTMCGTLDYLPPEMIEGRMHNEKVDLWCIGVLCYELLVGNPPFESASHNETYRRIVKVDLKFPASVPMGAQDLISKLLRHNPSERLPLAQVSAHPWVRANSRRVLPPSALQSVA

[8] = biological target: T4, Discoidin domain-containing receptor 2 (Homo sapiens, UniProt Q16832)
T4 sequence (Q16832 whole entry): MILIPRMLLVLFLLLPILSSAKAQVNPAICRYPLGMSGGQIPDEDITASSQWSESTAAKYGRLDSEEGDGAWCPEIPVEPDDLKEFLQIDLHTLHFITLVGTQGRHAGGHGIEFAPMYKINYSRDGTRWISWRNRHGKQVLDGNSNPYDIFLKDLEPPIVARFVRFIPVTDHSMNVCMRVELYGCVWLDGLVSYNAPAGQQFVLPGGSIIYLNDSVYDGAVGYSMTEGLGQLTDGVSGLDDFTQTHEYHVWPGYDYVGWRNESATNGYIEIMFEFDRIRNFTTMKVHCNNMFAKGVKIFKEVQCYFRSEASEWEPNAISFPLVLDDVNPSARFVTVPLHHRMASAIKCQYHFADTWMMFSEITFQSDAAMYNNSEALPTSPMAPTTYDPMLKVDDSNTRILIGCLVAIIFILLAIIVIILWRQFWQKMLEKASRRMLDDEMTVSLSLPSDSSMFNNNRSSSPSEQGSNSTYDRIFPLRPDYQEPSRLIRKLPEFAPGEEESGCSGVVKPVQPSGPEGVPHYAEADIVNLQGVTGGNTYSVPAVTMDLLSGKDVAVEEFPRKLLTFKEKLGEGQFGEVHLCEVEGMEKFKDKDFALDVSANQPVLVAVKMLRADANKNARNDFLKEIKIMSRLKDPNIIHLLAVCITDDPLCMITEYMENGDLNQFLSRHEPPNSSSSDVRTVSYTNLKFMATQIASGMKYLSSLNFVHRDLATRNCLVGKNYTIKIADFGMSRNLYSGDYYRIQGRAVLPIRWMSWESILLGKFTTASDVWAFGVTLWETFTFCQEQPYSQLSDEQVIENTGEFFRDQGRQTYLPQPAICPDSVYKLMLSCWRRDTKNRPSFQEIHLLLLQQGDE

[9] = biological target: cAMP-dependent protein kinase type II-alpha regulatory subunit (Homo sapiens, UniProt P13861)
Chain of cAMP-dependent protein kinase type II-alpha regulatory subunit (P13861 whole entry): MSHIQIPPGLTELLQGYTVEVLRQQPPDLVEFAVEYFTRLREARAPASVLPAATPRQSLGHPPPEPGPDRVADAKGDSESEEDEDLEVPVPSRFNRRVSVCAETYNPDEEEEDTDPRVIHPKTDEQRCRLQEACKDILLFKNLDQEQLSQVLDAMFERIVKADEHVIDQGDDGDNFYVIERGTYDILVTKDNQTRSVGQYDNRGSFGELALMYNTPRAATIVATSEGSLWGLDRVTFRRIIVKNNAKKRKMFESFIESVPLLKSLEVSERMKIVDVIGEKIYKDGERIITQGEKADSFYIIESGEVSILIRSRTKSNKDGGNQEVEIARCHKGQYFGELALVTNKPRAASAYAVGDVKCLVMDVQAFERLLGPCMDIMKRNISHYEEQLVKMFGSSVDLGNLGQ

Chain of Ephrin type-A receptor 7 (Q15375 whole entry): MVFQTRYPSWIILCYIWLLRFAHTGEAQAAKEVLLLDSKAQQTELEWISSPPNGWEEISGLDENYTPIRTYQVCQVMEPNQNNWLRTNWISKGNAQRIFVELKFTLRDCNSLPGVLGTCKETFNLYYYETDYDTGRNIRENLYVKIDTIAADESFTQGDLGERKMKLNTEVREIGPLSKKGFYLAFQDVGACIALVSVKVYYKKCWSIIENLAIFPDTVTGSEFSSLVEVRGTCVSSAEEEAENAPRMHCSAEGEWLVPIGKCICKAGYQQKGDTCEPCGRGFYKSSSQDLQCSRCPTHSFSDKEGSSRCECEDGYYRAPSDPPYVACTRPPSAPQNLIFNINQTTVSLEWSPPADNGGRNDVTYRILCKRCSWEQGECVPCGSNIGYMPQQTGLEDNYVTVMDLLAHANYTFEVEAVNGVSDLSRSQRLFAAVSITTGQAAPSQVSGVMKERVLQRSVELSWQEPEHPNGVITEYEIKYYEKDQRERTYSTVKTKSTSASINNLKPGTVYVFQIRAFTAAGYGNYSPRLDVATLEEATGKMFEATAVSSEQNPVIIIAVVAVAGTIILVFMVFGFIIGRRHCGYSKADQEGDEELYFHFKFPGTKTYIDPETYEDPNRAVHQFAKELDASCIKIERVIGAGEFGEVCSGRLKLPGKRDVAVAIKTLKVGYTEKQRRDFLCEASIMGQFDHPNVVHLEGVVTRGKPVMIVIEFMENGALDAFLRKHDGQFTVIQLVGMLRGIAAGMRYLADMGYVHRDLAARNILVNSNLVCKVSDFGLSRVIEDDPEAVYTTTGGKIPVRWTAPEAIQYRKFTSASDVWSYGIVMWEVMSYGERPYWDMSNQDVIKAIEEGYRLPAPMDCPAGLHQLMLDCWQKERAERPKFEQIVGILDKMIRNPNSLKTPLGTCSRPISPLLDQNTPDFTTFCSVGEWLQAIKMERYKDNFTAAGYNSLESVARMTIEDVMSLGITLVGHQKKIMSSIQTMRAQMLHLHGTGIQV

| Kd (Ephrin type-A receptor 7) | Kd [1] | Kd [2] | Kd [3] | Kd [4] | Kd [5] | Kd [6] | Kd [7] | Kd (Aurora kinase B) | Kd [8] | Kd [9] | pKd [5] | pKd [2] | Compound |
| --- | --- | --- | --- | --- | --- | --- | --- | --- | --- | --- | --- | --- | --- |
| > 30 µM (inactive) | > 30 µM (inactive) | > 30 µM (inactive) | 14.7 µM (active) | > 30 µM (inactive) | > 30 µM (inactive) | > 30 µM (inactive) | > 30 µM (inactive) | > 30 µM (inactive) | > 30 µM (inactive) | > 30 µM (inactive) |  |  | Cn1cnc2c(F)c(Nc3ccc(Br)cc3F)c(C(=O)NOCCO)cc21 [BINIMETINIB] |
| > 30 µM (inactive) | > 30 µM (inactive) | > 30 µM (inactive) | 5.86 µM (active) | > 30 µM (inactive) | > 30 µM (inactive) | > 30 µM (inactive) | > 30 µM (inactive) | > 30 µM (inactive) | > 30 µM (inactive) | > 30 µM (inactive) |  |  | CCn1c(C(=O)N(C2CC2)C2CC2)cc2c3c(ncn3C)c(Nc3cc(C)n(C)n3)nc21 [BMS-911543] |
| > 30 µM (inactive) | > 30 µM (inactive) | > 30 µM (inactive) | > 30 µM (inactive) | 9.85 µM (active) | > 30 µM (inactive) | > 30 µM (inactive) | > 30 µM (inactive) | > 30 µM (inactive) | > 30 µM (inactive) | > 30 µM (inactive) |  |  | Cc1cc(Nc2ncc(Cl)c(Nc3ccccc3S(=O)(=O)C(C)C)n2)c(OC(C)C)cc1C1CCNCC1 [CERITINIB] |
| > 30 µM (inactive) | > 30 µM (inactive) | > 30 µM (inactive) | > 30 µM (inactive) | > 30 µM (inactive) | > 30 µM (inactive) | > 30 µM (inactive) | > 30 µM (inactive) | > 30 µM (inactive) | > 30 µM (inactive) | > 30 µM (inactive) |  |  | COc1c(OCCCN2CCOCC2)ccc2c1N=C(NC(=O)c1cnc(N)nc1)N1CCN=C21 [COPANLISIB] |
| > 30 µM (inactive) | > 30 µM (inactive) | > 30 µM (inactive) | > 30 µM (inactive) | > 30 µM (inactive) | > 30 µM (inactive) | > 30 µM (inactive) | > 30 µM (inactive) | > 30 µM (inactive) | > 30 µM (inactive) | > 30 µM (inactive) |  |  | COCC(=O)NC/C=C/c1ccc2ncnc(Nc3ccc(Oc4ccc(C)nc4)c(C)c3)c2c1 [CP-724714] |
| > 30 µM (inactive) | 0.0008 µM (active) | 0.203 µM (active) | > 30 µM (inactive) | > 30 µM (inactive) |  | > 30 µM (inactive) | > 30 µM (inactive) | 3.79 µM (active) | > 30 µM (inactive) | > 30 µM (inactive) | 5.43 |  | CCS(=O)(=O)N1CCN(c2ccc(Nc3ncc(C(N)=O)c(NC4CC4)n3)cc2)CC1 [Cerdulatinib Hydrochloride] |
| > 30 µM (inactive) | > 30 µM (inactive) | > 30 µM (inactive) | > 30 µM (inactive) | > 30 µM (inactive) | > 30 µM (inactive) | > 30 µM (inactive) | > 30 µM (inactive) | > 30 µM (inactive) | > 30 µM (inactive) | > 30 µM (inactive) |  |  | Cc1cccc(-c2nn3c(c2-c2ccnc4ccc(C(N)=O)cc24)CCC3)n1 [GALUNISERTIB] |
| > 30 µM (inactive) | > 30 µM (inactive) | > 30 µM (inactive) | > 30 µM (inactive) | > 30 µM (inactive) | > 30 µM (inactive) | > 30 µM (inactive) | > 30 µM (inactive) | > 30 µM (inactive) | > 30 µM (inactive) | > 30 µM (inactive) |  |  | COc1ccc(S(=O)(=O)N(C(C)=O)c2ccccc2/C=C/c2cc[n+]([O-])cc2)cc1 [HMN-214] |
| > 30 µM (inactive) | > 30 µM (inactive) |  | > 30 µM (inactive) | > 30 µM (inactive) | > 30 µM (inactive) | > 30 µM (inactive) | > 30 µM (inactive) | 22.9 µM (active) | 0.094 µM (active) | > 30 µM (inactive) |  | 6.56 | CNC(=O)c1cccc2cc(Oc3ccnc4cc(OCC5(N)CC5)c(OC)cc34)ccc12 [LUCITANIB] |
| > 30 µM (inactive) | > 30 µM (inactive) | > 30 µM (inactive) | > 30 µM (inactive) | > 30 µM (inactive) | > 30 µM (inactive) | > 30 µM (inactive) | > 30 µM (inactive) | > 30 µM (inactive) | > 30 µM (inactive) | > 30 µM (inactive) |  |  | NC1(c2ccc(-c3nc4ccn5c(=O)[nH]nc5c4cc3-c3ccccc3)cc2)CCC1 [MK-2206] |

| Compound | Kd (Ephrin type-A receptor 7) | Kd [1] | Kd [2] | Kd [3] | Kd [4] | Kd [5] | Kd [6] | Kd [7] | Kd (Aurora kinase B) | Kd [8] | Kd [9] | pKd [5] | pKd [2] |
| --- | --- | --- | --- | --- | --- | --- | --- | --- | --- | --- | --- | --- | --- |
| O=C(Nc1nc2cccc(-c3ccc(CN4CCS(=O)(=O)CC4)cc3)n2n1)C1CC1 [FILGOTINIB] | > 30 µM (inactive) | 6.59 µM (active) | > 30 µM (inactive) | > 30 µM (inactive) | > 30 µM (inactive) | > 30 µM (inactive) | > 30 µM (inactive) | > 30 µM (inactive) | > 30 µM (inactive) | > 30 µM (inactive) | > 30 µM (inactive) |  |  |
| O=C(Nc1cc(C(F)(F)F)cc(C(F)(F)F)c1)c1cc(Cl)ccc1O [IMD-0354] | > 30 µM (inactive) | > 30 µM (inactive) | > 30 µM (inactive) | > 30 µM (inactive) | > 30 µM (inactive) | > 30 µM (inactive) | > 30 µM (inactive) | > 30 µM (inactive) | > 30 µM (inactive) | > 30 µM (inactive) | > 30 µM (inactive) |  |  |
